Measurements reported in PubChem BioAssay (NCI).
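Five compound concentrations were applied to cells in 96-well plates for 48 hours; endpoints were derived by simple linear interpolation of the resulting dose-response curve. At the GI50, growth is halved. TGI is the concentration that stops growth completely.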

Assays:
Assay in all cases: NCI tumour cell line growth inhibition, 48 h; in the data active = GI50 below about 0.43 µM; inactive = the rest
OVCAR-5 ovarian = tested on: OVCAR-5 ovarian
A498 renal = tested on: A498 renal
HOP-92 NSCLC = tested on: HOP-92 NSCLC
SN12C renal = tested on: SN12C renal
T-47D breast = tested on: T-47D breast
TK-10 renal = tested on: TK-10 renal
HCC-2998 colon = tested on: HCC-2998 colon
NCI-H522 lung = tested on: NCI-H522 lung
SF-268 CNS = tested on: SF-268 CNS
K-562 leukemia = tested on: K-562 leukemia
HOP-62 NSCLC = tested on: HOP-62 NSCLC
BT-549 breast = tested on: BT-549 breast
NCI-H226 lung = tested on: NCI-H226 lung
SK-MEL-5 melanoma = tested on: SK-MEL-5 melanoma
NCI/ADR-RES ovarian = tested on: NCI/ADR-RES ovarian
PC-3 prostate = tested on: PC-3 prostate
CAKI-1 renal = tested on: CAKI-1 renal
UACC-257 melanoma = tested on: UACC-257 melanoma
786-0 renal = tested on: 786-0 renal
CCRF-CEM leukemia = tested on: CCRF-CEM leukemia
NCI-H23 lung = tested on: NCI-H23 lung
COLO 205 colon = tested on: COLO 205 colon
OVCAR-3 ovarian = tested on: OVCAR-3 ovarian
SNB-75 CNS = tested on: SNB-75 CNS
SNB-19 CNS = tested on: SNB-19 CNS
IGROV1 ovarian = tested on: IGROV1 ovarian
MALME-3M melanoma = tested on: MALME-3M melanoma
RXF 393 renal = tested on: RXF 393 renal
SF-295 CNS = tested on: SF-295 CNS
ACHN renal = tested on: ACHN renal
EKVX NSCLC = tested on: EKVX NSCLC
UO-31 renal = tested on: UO-31 renal
A549 NSCLC = tested on: A549 NSCLC
U251 CNS = tested on: U251 CNS
OVCAR-4 ovarian = tested on: OVCAR-4 ovarian
OVCAR-8 ovarian = tested on: OVCAR-8 ovarian
SW-620 colon = tested on: SW-620 colon
HL-60(TB) leukemia = tested on: HL-60(TB) leukemia
NCI-H460 lung = tested on: NCI-H460 lung
SF-539 CNS = tested on: SF-539 CNS
HCT-116 colon = tested on: HCT-116 colon
SK-OV-3 ovarian = tested on: SK-OV-3 ovarian
SK-MEL-2 melanoma = tested on: SK-MEL-2 melanoma
SR leukemia = tested on: SR leukemia
HCT-15 colon = tested on: HCT-15 colon
HS 578T breast = tested on: HS 578T breast
MOLT-4 leukemia = tested on: MOLT-4 leukemia
KM12 colon = tested on: KM12 colon
SK-MEL-28 melanoma = tested on: SK-MEL-28 melanoma
LOX IMVI melanoma = tested on: LOX IMVI melanoma
MDA-MB-435 = tested on: MDA-MB-435
HT29 colon = tested on: HT29 colon
M14 melanoma = tested on: M14 melanoma
MDA-MB-231 breast = tested on: MDA-MB-231 breast
DU-145 prostate = tested on: DU-145 prostate
MCF7 breast = tested on: MCF7 breast
UACC-62 melanoma = tested on: UACC-62 melanoma
RPMI-8226 leukemia = tested on: RPMI-8226 leukemia

O=C(O[C@H]1CN[C@H](C#Cc2cc3ncnc(Nc4ccc5c(cnn5Cc5ccccc5)c4)c3s2)C1)N1CCOCC1
> 17 µM: TGI (HS 578T breast)
1.83 µM: TGI (TK-10 renal)
> 22.9 µM: TGI (DU-145 prostate)
23.7 µM: TGI (MALME-3M melanoma)
> 11.4 µM: TGI (EKVX NSCLC)
> 19.1 µM: TGI (SF-539 CNS)
15.3 µM: TGI (A498 renal)
13.3 µM: TGI (UO-31 renal)
> 12.7 µM: TGI (SK-OV-3 ovarian)
9.29 µM: TGI (BT-549 breast)
4.26 µM: TGI (NCI-H522 lung)
> 11.3 µM: TGI (CAKI-1 renal)
10.5 µM: TGI (KM12 colon)
> 25 µM: TGI (OVCAR-5 ovarian) | TGI (HOP-92 NSCLC) | TGI (SN12C renal) | TGI (T-47D breast) | TGI (HCC-2998 colon) | TGI (K-562 leukemia) | TGI (HOP-62 NSCLC) | TGI (NCI-H226 lung) | TGI (SK-MEL-5 melanoma) | TGI (NCI/ADR-RES ovarian) | TGI (PC-3 prostate) | TGI (UACC-257 melanoma) | TGI (786-0 renal) | TGI (CCRF-CEM leukemia) | TGI (NCI-H23 lung) | TGI (SNB-19 CNS) | TGI (SF-295 CNS) | TGI (ACHN renal) | TGI (A549 NSCLC) | TGI (U251 CNS) | TGI (OVCAR-4 ovarian) | TGI (OVCAR-8 ovarian) | TGI (SW-620 colon) | TGI (NCI-H460 lung) | TGI (HCT-116 colon) | TGI (SR leukemia) | TGI (HCT-15 colon) | TGI (SK-MEL-28 melanoma) | TGI (LOX IMVI melanoma) | TGI (MDA-MB-435) | TGI (M14 melanoma) | TGI (MDA-MB-231 breast) | TGI (MCF7 breast) | TGI (UACC-62 melanoma)
> 20.4 µM: TGI (HL-60(TB) leukemia)
11.5 µM: TGI (RXF 393 renal) | TGI (HT29 colon)
24.5 µM: TGI (SF-268 CNS)
> 23.6 µM: TGI (MOLT-4 leukemia)
10.6 µM: TGI (OVCAR-3 ovarian)
inactive: GI50 (OVCAR-5 ovarian) 1.64 µM | GI50 (A498 renal) 0.998 µM | GI50 (HOP-92 NSCLC) 1.29 µM | GI50 (SN12C renal) 2.46 µM | GI50 (T-47D breast) 2.89 µM | GI50 (HCC-2998 colon) 5 µM | GI50 (SF-268 CNS) 4.43 µM | GI50 (K-562 leukemia) 6.99 µM | GI50 (HOP-62 NSCLC) 4.86 µM | GI50 (BT-549 breast) 3.35 µM | GI50 (NCI-H226 lung) 5.37 µM | GI50 (SK-MEL-5 melanoma) 6.18 µM | GI50 (NCI/ADR-RES ovarian) 9.55 µM | GI50 (PC-3 prostate) 7.36 µM | GI50 (CAKI-1 renal) 0.602 µM | GI50 (UACC-257 melanoma) 7.45 µM | GI50 (786-0 renal) 7.16 µM | GI50 (CCRF-CEM leukemia) 3.15 µM | GI50 (NCI-H23 lung) 11.3 µM | GI50 (COLO 205 colon) 3.78 µM | GI50 (OVCAR-3 ovarian) 3.1 µM | GI50 (SNB-75 CNS) 2.01 µM | GI50 (SNB-19 CNS) 7.71 µM | GI50 (IGROV1 ovarian) 0.805 µM | GI50 (MALME-3M melanoma) 4.79 µM | GI50 (RXF 393 renal) 1.15 µM | GI50 (SF-295 CNS) 7.49 µM | GI50 (ACHN renal) 0.586 µM | GI50 (UO-31 renal) 0.536 µM | GI50 (A549 NSCLC) 3.71 µM | GI50 (U251 CNS) 6.03 µM | GI50 (OVCAR-4 ovarian) 5.3 µM | GI50 (OVCAR-8 ovarian) 6.4 µM | GI50 (SW-620 colon) 8.57 µM | GI50 (HL-60(TB) leukemia) 6.74 µM | GI50 (NCI-H460 lung) 7.26 µM | GI50 (SF-539 CNS) 4.18 µM | GI50 (HCT-116 colon) 3.74 µM | GI50 (SK-MEL-2 melanoma) 4.31 µM | GI50 (SR leukemia) 7.53 µM | GI50 (HCT-15 colon) 2.37 µM | GI50 (HS 578T breast) 0.78 µM | GI50 (MOLT-4 leukemia) 4.22 µM | GI50 (KM12 colon) 4.63 µM | GI50 (SK-MEL-28 melanoma) 9.34 µM | GI50 (LOX IMVI melanoma) 5.88 µM | GI50 (MDA-MB-435) 6.08 µM | GI50 (HT29 colon) 3.92 µM | GI50 (M14 melanoma) 5.22 µM | GI50 (MDA-MB-231 breast) 1.8 µM | GI50 (DU-145 prostate) 2.16 µM | GI50 (MCF7 breast) 5.91 µM | GI50 (UACC-62 melanoma) 5.74 µM | GI50 (RPMI-8226 leukemia) 5.38 µM
20.4 µM: TGI (RPMI-8226 leukemia)
19.3 µM: TGI (SK-MEL-2 melanoma)
active: GI50 (TK-10 renal) 0.131 µM | GI50 (NCI-H522 lung) 0.195 µM | GI50 (EKVX NSCLC) 0.234 µM | GI50 (SK-OV-3 ovarian) 0.0182 µM
8.7 µM: TGI (COLO 205 colon)
> 18.7 µM: TGI (IGROV1 ovarian)
> 23 µM: TGI (SNB-75 CNS)
